These results are taken from ChEMBL document CHEMBL1146431, “Isolation and structure elucidation of ardisenone: a new, cytotoxic alkenylphenol from Ardisia iwahigensis” (J Nat Prod, 1997).

What all share (assay type): functional, cell-based
A short description of test [1]: Cytotoxicity against human BC1 cells by SRB assay. On the technique in general: The SRB assay estimates cell density from bound dye.
Test [2] concerns Col2. The test can be described thus: Cytotoxicity against human Col2 cells by SRB assay.
In test [3] the test system is KB. Kind of test: Cytotoxicity against human KB cells by SRB assay.
Test [4] is described as follows: Cytotoxicity against human vinblastine-resistant KBV1 cells by SRB assay in absence of vinblastine. As to conditions: KB-V1.
Test [5] concerns LNCaP. Kind of test: Cytotoxicity against human LNCAP cells by SRB assay.
The test system of test [6] is Lu1. Kind of test: Cytotoxicity against human Lu1 cells by SRB assay.
Test [7] can be described thus: Cytotoxicity against human vinblastine-resistant KBV1 cells by SRB assay in presence of vinblastine. Conditions: KB-V1.

Molecules are shown by their SMILES. ≈ marks a conversion by molar mass, not a printed value.

The term IC50 denotes the concentration at which inhibition is half-maximal. In the case of `COc1cc(O)cc(CC(=O)CCC/C=C\CCCCCCCCC(=O)c2cc(O)cc(OC)c2)c1` [ARDISENONE], the IC50 in test [1] is 8.5 µg/mL (≈ 17.1 µM); in test [2], 15 µg/mL (≈ 30.2 µM); in test [3], 13 µg/mL (≈ 26.2 µM); in test [4], 6.9 µg/mL (≈ 13.9 µM); in test [5] it was 11 µg/mL (≈ 22.1 µM); in test [6], 4.9 µg/mL (≈ 9.87 µM). The IC50 in test [7] was found to be 8 µg/mL.
